As a reminder, the IC50 is the concentration needed to halve the response being measured. Low values mean greater potency in that assay, high ones weaker potency in that assay.

Consider 29 molecules from patent US9051270B2, “Pyridone amides as modulators of sodium channels” (Vertex Pharmaceuticals Incorporated, priority 2013, dated 2015).

The target of the assay is human Nav1.8 (Homo sapiens (Human), UniProt Q9Y5Y9). Put plainly: E-VIPR optical membrane potential assay with electrical stimulation. Format: cell-based. The conditions noted are these: HEK cells expressing human Nav1.8. An excerpt: Sodium channels are voltage-dependent proteins that can be activated by inducing membrane voltage changes by applying electric fields. […] The instrument comprises a microtiter plate handler, an optical system for exciting the coumarin dye while simultaneously recording the coumarin and oxonol emissions, a waveform generator, a current- or voltage-controlled amplifier, and a device for inserting electrodes in well. Under integrated computer control, this instrument passes user-programmed electrical stimulus protocols to cells within the wells of the microtiter plate.
Sequence of human Nav1.8 (Q9Y5Y9 whole entry): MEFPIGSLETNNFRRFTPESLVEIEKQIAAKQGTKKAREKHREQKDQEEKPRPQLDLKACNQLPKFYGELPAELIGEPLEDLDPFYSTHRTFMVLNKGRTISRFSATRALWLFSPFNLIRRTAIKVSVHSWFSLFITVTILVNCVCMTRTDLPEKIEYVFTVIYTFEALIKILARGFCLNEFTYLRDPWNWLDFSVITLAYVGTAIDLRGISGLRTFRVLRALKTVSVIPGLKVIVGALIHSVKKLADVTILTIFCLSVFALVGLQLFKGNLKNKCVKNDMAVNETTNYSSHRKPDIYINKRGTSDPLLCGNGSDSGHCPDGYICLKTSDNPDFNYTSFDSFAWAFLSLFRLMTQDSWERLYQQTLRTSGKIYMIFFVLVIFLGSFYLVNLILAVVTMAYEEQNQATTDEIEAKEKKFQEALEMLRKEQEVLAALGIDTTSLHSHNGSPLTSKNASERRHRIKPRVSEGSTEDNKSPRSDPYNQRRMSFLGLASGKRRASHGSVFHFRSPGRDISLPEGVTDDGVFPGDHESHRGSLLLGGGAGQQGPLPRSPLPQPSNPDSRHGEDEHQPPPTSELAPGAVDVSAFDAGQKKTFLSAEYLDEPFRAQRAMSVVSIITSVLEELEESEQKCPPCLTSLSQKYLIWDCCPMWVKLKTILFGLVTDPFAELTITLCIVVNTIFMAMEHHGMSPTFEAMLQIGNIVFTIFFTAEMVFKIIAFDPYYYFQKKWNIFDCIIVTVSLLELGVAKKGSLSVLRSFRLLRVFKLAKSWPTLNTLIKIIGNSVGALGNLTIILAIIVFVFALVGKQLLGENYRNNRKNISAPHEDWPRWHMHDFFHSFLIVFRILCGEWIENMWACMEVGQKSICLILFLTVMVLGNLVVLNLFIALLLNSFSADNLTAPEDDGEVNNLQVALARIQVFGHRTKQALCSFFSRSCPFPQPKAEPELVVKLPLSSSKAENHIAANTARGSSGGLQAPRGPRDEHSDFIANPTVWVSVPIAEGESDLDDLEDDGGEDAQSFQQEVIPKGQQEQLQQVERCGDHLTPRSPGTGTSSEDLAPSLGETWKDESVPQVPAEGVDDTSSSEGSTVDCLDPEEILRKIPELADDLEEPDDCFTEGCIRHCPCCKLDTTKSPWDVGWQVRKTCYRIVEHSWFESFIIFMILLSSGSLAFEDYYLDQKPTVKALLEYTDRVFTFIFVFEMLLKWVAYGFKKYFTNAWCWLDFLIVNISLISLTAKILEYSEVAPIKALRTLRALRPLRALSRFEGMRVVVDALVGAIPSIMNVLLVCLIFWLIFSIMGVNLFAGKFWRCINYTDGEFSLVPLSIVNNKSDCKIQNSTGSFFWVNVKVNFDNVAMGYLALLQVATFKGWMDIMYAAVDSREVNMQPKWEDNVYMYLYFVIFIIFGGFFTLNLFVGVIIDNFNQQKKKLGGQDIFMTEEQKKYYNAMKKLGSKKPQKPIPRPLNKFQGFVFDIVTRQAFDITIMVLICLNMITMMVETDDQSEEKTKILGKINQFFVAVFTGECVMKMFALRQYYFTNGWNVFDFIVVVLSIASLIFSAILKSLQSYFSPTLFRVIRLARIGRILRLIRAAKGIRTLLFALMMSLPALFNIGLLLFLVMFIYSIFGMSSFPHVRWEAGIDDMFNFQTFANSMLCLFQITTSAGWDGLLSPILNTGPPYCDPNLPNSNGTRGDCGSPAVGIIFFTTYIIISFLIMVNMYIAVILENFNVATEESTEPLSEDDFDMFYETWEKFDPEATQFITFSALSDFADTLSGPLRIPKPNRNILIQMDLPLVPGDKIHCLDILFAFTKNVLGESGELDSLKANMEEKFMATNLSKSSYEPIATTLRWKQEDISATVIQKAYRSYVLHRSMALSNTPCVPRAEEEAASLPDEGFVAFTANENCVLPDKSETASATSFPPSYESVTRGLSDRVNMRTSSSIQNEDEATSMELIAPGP
24 hours before the assay on E-VIPR, HEK cells expressing human Nav1.8 were seeded in 384-well poly-lysine coated plates at 15,000-20,000 cells per well. […] Cells were grown in vented cap flasks, in 90% humidity and 5% CO2.
To make the solution added volume of 10% Pluronic F127 stock equal to volumes of CC2-DMPE+DiSBAC6(3). The order of preparation was first mixing Pluronic and CC2-DMPE, then adding DiSBAC6(3) while vortexing, then adding Bath1+β-Cyclodextrin.
1) Pre-spotted compounds (in neat DMSO) into compound plates. […] Final compound plate volume was 80 μL (80-fold intermediate dilution from 1 μL DMSO spot; 160-fold final dilution after transfer to cell plate).
2) Prepared Hexyl Dye Solution.
3) Prepared cell plates. On the day of the assay, medium was aspirated and cells were washed three times with 100 μL of Bath1 Solution, maintaining 25 μL residual volume in each well.
4) Dispensed 25 μL per well of Hexyl Dye Solution into cell plates. Incubated for 20-35 minutes at room temp or ambient conditions.
5) Dispensed 80 μL per well of Bath1 into compound plates. Acid Yellow-17 (1 mM) was added and Potassium Chloride was altered from 4.5 to 20 mM depending on the NaV subtype and assay sensitivity.
6) Washed cell plates three times with 100 μL per well of Bath1, leaving 25 μL of residual volume. Then transferred 25 uL per well from Compound Plates to Cell Plates. Incubated for 20-35 minutes at room temp/ambient condition.
7) Read Plate on E-VIPR. […] A pre-stimulus recording was performed for 0.5 seconds to obtain the un-stimulated intensities baseline. The stimulatory waveform was followed by 0.5 seconds of post-stimulation recording to examine the relaxation to the resting state.
Data was analyzed and reported as normalized ratios of emission intensities measured in the 460 nm and 580 nm channels. The response as a function of time was reported as the ratios obtained using the following formula: […]
The data was further reduced by calculating the initial (Ri) and final (Rf) ratios. These were the average ratio values during part or all of the pre-stimulation period, and during sample points during the stimulation period. The response to the stimulus R=Rf/Ri was then calculated and reported as a function of time.
Control responses were obtained by performing assays in the presence of a compound with the desired properties (positive control), such as tetracaine, and in the absence of pharmacological agents (negative control). Responses to the negative (N) and positive (P) controls were calculated as above. The compound antagonist activity A is defined as:
[formula] where R is the ratio response of the test compound
“2-(4-fluorophenoxy)-N-(1-(2-hydroxyethyl)-2-oxo-1,2-dihydropyridin-4-yl)-4-(trifluoromethyl)benzamide [Compound 85]” returned an IC50 of 2.8 µM. `O=C(Nc1cc[nH]c(=O)c1)c1ccccc1Oc1ccc(F)cc1` [Compound 1, 2-(4-fluorophenoxy)-N-(2-oxo-1,2-dihydropyridin-4-yl)benzamide] gave an IC50 of 1.09 µM.

`O=C(Nc1ccc(=O)[nH]c1)c1ccccc1Oc1ccc(F)cc1` [Compound 3, 2-(4-fluorophenoxy)-N-(6-oxo-1,6-dihydropyridin-3-yl)benzamide] gave an IC50 of 13.5 µM. This IC50 lies about 12-fold higher than the previous one. Consider `O=C(Nc1ccc(=O)[nH]c1)c1cc(C(F)(F)F)ccc1Oc1ccc(F)cc1` [Compound 4, 2-(4-fluorophenoxy)-N-(6-oxo-1,6-dihydropyridin-3-yl)-5-(trifluoromethyl)benzamide], for which it took 0.35 µM to reach half-maximal inhibition (IC50). Molecule `O=C(Nc1cc[nH]c(=O)c1)c1ccc(C(F)(F)F)cc1Oc1ccc(F)cc1` [Compound 5, 2-(4-fluorophenoxy)-N-(2-oxo-1,2-dihydropyridin-4-yl)-4-(trifluoromethyl)benzamide] returned an IC50 of 0.039 µM. In the case of `O=C(Nc1ccc(=O)[nH]c1)c1ccc(C(F)(F)F)cc1Oc1ccc(F)cc1` [Compound 6, 2-(4-fluorophenoxy)-N-(6-oxo-1,6-dihydropyridin-3-yl)-4-(trifluoromethyl)benzamide] it was 0.245 µM; in that of `O=C(Nc1cc[nH]c(=O)c1)c1ccc(C(F)(F)F)cc1Oc1ccccc1` [Compound 9, N-(2-oxo-1,2-dihydropyridin-4-yl)-2-phenoxy-4-(trifluoromethyl)benzamide], 0.093 µM; in that of `Cc1ccccc1Oc1cc(C(F)(F)F)ccc1C(=O)Nc1cc[nH]c(=O)c1` [Compound 11, N-(2-oxo-1,2-dihydropyridin-4-yl)-2-(o-tolyloxy)-4-(trifluoromethyl)benzamide], 0.056 µM.

The molecule `Cc1ccc(Oc2cc(C(F)(F)F)ccc2C(=O)Nc2cc[nH]c(=O)c2)cc1` [Compound 12, N-(2-oxo-1,2-dihydropyridin-4-yl)-2-(p-tolyloxy)-4-(trifluoromethyl)benzamide] came in with an IC50 of 0.106 µM. This IC50 is about 1.9-fold higher than that of the molecule before. The figure for `O=C(Nc1cc[nH]c(=O)c1)c1ccc(Cl)cc1Oc1ccc(F)cc1F` [Compound 13, 4-chloro-2-(2,4-difluorophenoxy)-N-(2-oxo-1,2-dihydropyridin-4-yl)benzamide] is 0.106 µM; for `O=C(Nc1cc[nH]c(=O)c1)c1ccc(Cl)cc1Oc1ccc(F)cc1Cl` [Compound 14, 4-chloro-2-(2-chloro-4-fluorophenoxy)-N-(2-oxo-1,2-dihydropyridin-4-yl)benzamide] it is 0.065 µM. On to `COc1cc(F)ccc1Oc1cc(Cl)ccc1C(=O)Nc1cc[nH]c(=O)c1` [Compound 16, 4-chloro-2-(4-fluoro-2-methoxyphenoxy)-N-(2-oxo-1,2-dihydropyridin-4-yl)benzamide], for which inhibition was half-maximal at 0.014 µM (IC50).

Molecule `Cc1cccc(F)c1Oc1cc(Cl)ccc1C(=O)Nc1cc[nH]c(=O)c1` [Compound 17, 4-chloro-2-(2-fluoro-6-methylphenoxy)-N-(2-oxo-1,2-dihydropyridin-4-yl)benzamide] displayed an IC50 of 1.8 µM. Molecule `O=C(Nc1cc[nH]c(=O)c1)c1ccc(Cl)cc1Oc1c(F)cccc1Cl` [Compound 18, 4-chloro-2-(2-chloro-6-fluorophenoxy)-N-(2-oxo-1,2-dihydropyridin-4-yl)benzamide] showed an IC50 of 12 µM. Compared with the last molecule, the IC50 is about 6.7-fold higher. In the case of `O=C(Nc1cc[nH]c(=O)c1)c1ccc(Cl)cc1Oc1c(F)cccc1F` [Compound 19, 4-chloro-2-(2,6-difluorophenoxy)-N-(2-oxo-1,2-dihydropyridin-4-yl)benzamide] it was 6 µM; in that of `N#Cc1ccc(C(=O)Nc2cc[nH]c(=O)c2)c(Oc2ccc(F)cc2)c1` [Compound 21, 4-cyano-2-(4-fluorophenoxy)-N-(2-oxo-1,2-dihydropyridin-4-yl)benzamide], 0.843 µM; in that of `COc1cc(F)ccc1Oc1cc(C#N)ccc1C(=O)Nc1cc[nH]c(=O)c1` [Compound 22, 4-cyano-2-(4-fluoro-2-methoxyphenoxy)-N-(2-oxo-1,2-dihydropyridin-4-yl)benzamide], 0.1 µM. For `Cc1cc(F)ccc1Oc1cc(C#N)ccc1C(=O)Nc1cc[nH]c(=O)c1` [Compound 23, 4-cyano-2-(4-fluoro-2-methylphenoxy)-N-(2-oxo-1,2-dihydropyridin-4-yl)benzamide], the IC50 came out at 1.5 µM. As for `O=C(Nc1cc[nH]c(=O)c1)c1cc(C(F)(F)F)ccc1Oc1ccc(F)cc1F` [Compound 24, 2-(2,4-difluorophenoxy)-N-(2-oxo-1,2-dihydropyridin-4-yl)-5-(trifluoromethyl)benzamide], the IC50 is 0.058 µM. For the molecule `N#Cc1ccc(Oc2ccc(C(F)(F)F)cc2C(=O)Nc2cc[nH]c(=O)c2)cc1` [Compound 25, 2-(4-cyanophenoxy)-N-(2-oxo-1,2-dihydropyridin-4-yl)-5-(trifluoromethyl)benzamide], half-maximal inhibition (IC50) required 1.1 µM. Regarding `O=C(Nc1cc[nH]c(=O)c1)c1cc(C(F)(F)F)ccc1Oc1c(F)cccc1F` [Compound 26, 2-(2,6-difluorophenoxy)-N-(2-oxo-1,2-dihydropyridin-4-yl)-5-(trifluoromethyl)benzamide], the midpoint of inhibition, the IC50, lay at 9.65 µM.

In turn, `Cc1ccc(Oc2ccc(C(F)(F)F)cc2C(=O)Nc2cc[nH]c(=O)c2)cc1` [Compound 27, N-(2-oxo-1,2-dihydropyridin-4-yl)-2-(p-tolyloxy)-5-(trifluoromethyl)benzamide] came in with an IC50 of 0.34 µM. As for `O=C(Nc1cc[nH]c(=O)c1)c1cc(C(F)(F)F)ccc1Oc1ccccc1` [Compound 32, N-(2-oxo-1,2-dihydropyridin-4-yl)-2-phenoxy-5-(trifluoromethyl)benzamide], 0.205 µM corresponded to half-maximal inhibition (IC50).

`O=C(Nc1cc[nH]c(=O)c1)c1cc(OC(F)(F)F)ccc1Oc1c(F)cccc1F` [Compound 34, 2-(2,6-difluorophenoxy)-N-(2-oxo-1,2-dihydropyridin-4-yl)-5-(trifluoromethoxy)benzamide] yielded an IC50 of 12 µM. For the molecule `Cc1ccc(Oc2ccc(OC(F)(F)F)cc2C(=O)Nc2cc[nH]c(=O)c2)cc1` [Compound 35, N-(2-oxo-1,2-dihydropyridin-4-yl)-2-(p-tolyloxy)-5-(trifluoromethoxy)benzamide], 0.47 µM corresponded to half-maximal inhibition (IC50). Molecule `Cc1ccccc1Oc1ccc(OC(F)(F)F)cc1C(=O)Nc1cc[nH]c(=O)c1` [Compound 36, N-(2-oxo-1,2-dihydropyridin-4-yl)-2-(o-tolyloxy)-5-(trifluoromethoxy)benzamide] registered an IC50 of 0.101 µM. Regarding `O=C(Nc1cc[nH]c(=O)c1)c1cc(OC(F)(F)F)ccc1Oc1ccc(F)cc1` [Compound 38, 2-(4-fluorophenoxy)-N-(2-oxo-1,2-dihydropyridin-4-yl)-5-(trifluoromethoxy)benzamide], the IC50 stood at 0.069 µM. `Cc1cccc(F)c1Oc1ccc(OC(F)(F)F)cc1C(=O)Nc1cc[nH]c(=O)c1` [Compound 39, 2-(2-fluoro-6-methylphenoxy)-N-(2-oxo-1,2-dihydropyridin-4-yl)-5-(trifluoromethoxy)benzamide]: the IC50 was 0.69 µM. On to `Cc1cc(F)ccc1Oc1ccc(OC(F)(F)F)cc1C(=O)Nc1cc[nH]c(=O)c1` [Compound 40, 2-(4-fluoro-2-methylphenoxy)-N-(2-oxo-1,2-dihydropyridin-4-yl)-5-(trifluoromethoxy)benzamide], for which it took 0.04 µM to reach half-maximal inhibition (IC50).
